Laboratory results as given in patent US11214803B2, “Modulators of YAP1 expression” (Ionis Pharmaceuticals, Inc., priority 2019, dated 2022).
Marks after values point to notes of the source that are not given here. Strand notation (5' to 3'): a small letter for the sugar, then the base; units joined by * are phosphorothioate-linked, units joined directly phosphodiester-linked; [ ] holds rarer units or linkages, { } end groups; capitals alone tell only the bases. k = constrained ethyl (cEt); [5mC] = 5-methylcytosine; d = 2'-deoxy (DNA)

Columns and labels:
[1] = Tolerability in Sprague-Dawley rats, body and organ weights (Example 21); format: in vivo; details: male Sprague-Dawley rats, 50 mg/kg s.c. weekly for 6 weeks (7 doses); for Kidney weight / Liver weight / Spleen weight: end of study; for body weight: terminal, prior to necropsy
Experimental: (§1) Terminal body weight was measured prior to necropsy. Ionis oligonucleotides that caused any changes in organ weights outside the expected range for modified oligonucleotides were excluded from further studies.

Yap1 mRNA [2] = test: Yap1 mRNA levels in SNU449 xenograft tumors (first Example 30); format: in vivo, human; details: SNU449 xenograft mice, 50 mg/kg, tumors collected day 119 post implantation, relative to PBS
Experimental: Modified oligonucleotides described in the studies above were tested in a hepatocellular carcinoma SNU449 xenograft tumor model. A control oligonucleotide 792169 was also tested.
Five million SNU449 cells in 30% matrigel were implanted subcutaneously into the fatpads of female NOD.Cg-Prkdcscid II2rgtmlWjl/SzJ mice (from Jackson Laboratory) at 4-6 weeks of age. 43 days post implantation (when tumors had reached approximately 100 mm^3 in size), groups of eight mice each were administered with 50 mg/kg modified oligonucleotide daily for 10 days (loading dose), following which they were administered with 50 mg/kg modified oligonucleotide four times a week for one week, following which they were dosed with 50 mg/kg modified oligonucleotide thrice weekly until the end of the study. Animals were sacrificed and tumors were collected on day 119 post implantation. Yap1 mRNA knockdown in tumors was measured by RT-qPCR as previously described using the Human Yap1 primer-probe set RTS4814. Yap1 mRNA levels were normalized to actin-beta content, as measured by primer probe set RTS5002. Results are presented in the tables below as percent control of the amount of Yap1 mRNA relative to PBS treated animals (% control).

SNU449 cells = test: Cell proliferation assay in SNU449 cells in combination with sorafenib, CellTiter-Glo (Example 48); format: cell-based, human; details: 144 hours
Experimental: Modified oligonucleotides described in the studies above were tested at various doses in hepatocellular carcinoma cell line SNU449. ION No. 792169, described herein above, was used as a control modified oligonucleotide. ION No. 715487 was used to target Yap1 RNA. […] After approximately 48 hours, Yap1 mRNA levels were measured.
144 hours post treatment, proliferation of SNU449 cells was measured using the luminescent cell viability CellTiter-Glo® 2.0 Assay (Promega). Results are presented in the tables below as percent control of the amount of luminescence in samples treated with modified oligonucleotides relative to untreated control cells (% UTC).

[3] = Tolerability in CD-1 mice, body and organ weights (Example 18); format: in vivo; details: male CD-1 mice, 50 mg/kg s.c. twice a week (total of 9 treatments), end of study (day 34)
Experimental: Groups of four male CD-1 mice at 5-6 weeks of age (obtained from Charles River) were injected subcutaneously twice a week for four weeks (for a total of 9 treatments) with 50 mg/kg of modified oligonucleotides. One group of male CD-1 mice was injected with PBS. Mice were euthanized on day 34 post start of treatment (24 hours following the final administration).
Body weights of CD-1 mice were measured at the end of the study, and the average body weight for each group is presented in the table below. Modified oligonucleotides that caused any changes in organ weights outside the expected range for modified oligonucleotides were excluded from further studies.

[4] = Tolerability in Sprague-Dawley rats, body and organ weights (Example 20); format: in vivo; details: male Sprague-Dawley rats, 50 mg/kg s.c. weekly for 6 weeks (7 doses); for Kidney weight / Liver weight / Spleen weight: end of study; for body weight: terminal, prior to necropsy
Experimental: as §1

Yap1 mRNA [5] = test: Antisense inhibition of human Yap1 in A-431 cells by cEt gapmers, single dose (Example 4, RTS4814); format: cell-based
How it was run: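 A-431 cells took up 3-10-3 cEt gapmers (16-mer, full phosphorothioate, 5-methylcytosines) by free uptake at 2,000 nM for about 48 h. Yap1 mRNA was quantified by qRT-PCR, normalized to total RNA (RIBOGREEN), and reported as % of untreated control.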

[6] = oligonucleotide at 0.04 uM, sorafenib 0 uM
[7] = oligonucleotide at 0.04 uM, sorafenib 0.37 uM
[8] = oligonucleotide at 0.04 uM, sorafenib 3.33 uM
[9] = oligonucleotide at 0.04 uM, sorafenib 10 uM
[10] = oligonucleotide at 0.04 uM, sorafenib […]
[11] = oligonucleotide at 0.2 uM, sorafenib 0 uM
[12] = oligonucleotide at 0.2 uM, sorafenib 0.37 uM
[13] = oligonucleotide at 0.2 uM, sorafenib 3.33 uM
[14] = oligonucleotide at 0.2 uM, sorafenib 10 uM
[15] = oligonucleotide at 0.2 uM, sorafenib […]
[16] = oligonucleotide at 1 uM, sorafenib 0 uM
[17] = oligonucleotide at 1 uM, sorafenib 0.37 uM
[18] = oligonucleotide at 1 uM, sorafenib 3.33 uM
[19] = oligonucleotide at 1 uM, sorafenib 10 uM
[20] = oligonucleotide at 1 uM, sorafenib […]
[21] = oligonucleotide at 5 uM, sorafenib 0 uM
[22] = oligonucleotide at 5 uM, sorafenib 0.37 uM
[23] = oligonucleotide at 5 uM, sorafenib 3.33 uM
[24] = oligonucleotide at 5 uM, sorafenib 10 uM
[25] = oligonucleotide at 5 uM, sorafenib […]

Substance: 1198439 (AGTGTATGTCAGAAGA; sugar, 5-methylcytosine, phosphorothioate modifications, further chemistry not given here) [compound 1198439]
- Kidney weight [1]: 3.68* g
- Liver weight [1]: 17* g
- Spleen weight [1]: 2.28* g
- body weight [1]: 319* g

Substance: 1198440 (AAGTGTATGTCAGAAG; cEt, 2'-MOE, 5-methylcytosine, phosphorothioate modifications, further chemistry not given here) [compound 1198440]
- Yap1 mRNA levels in tumors (Yap1 mRNA [2]): 34 % control
- Kidney weight [1]: 3.29 g
- Liver weight [1]: 18 g
- Spleen weight [1]: 2.78 g
- body weight [1]: 373 g

Substance: CGCCGATAAGGTACAC (cEt gapmer, phosphorothioate backbone, further chemistry not given here) [ION 792169, reference compound]
- Antiproliferative effect (cell proliferation, luminescence) (SNU449 cells; [6]): 99 % UTC
- Antiproliferative effect (cell proliferation, luminescence) (SNU449 cells; [7]): 103 % UTC
- Antiproliferative effect (cell proliferation, luminescence) (SNU449 cells; [8]): 51 % UTC
- Antiproliferative effect (cell proliferation, luminescence) (SNU449 cells; [9]): 3 % UTC
- Antiproliferative effect (cell proliferation, luminescence) (SNU449 cells; [10]): 97 % UTC
- Antiproliferative effect (cell proliferation, luminescence) (SNU449 cells; [11]): 97 % UTC
- Antiproliferative effect (cell proliferation, luminescence) (SNU449 cells; [12]): 100 % UTC
- Antiproliferative effect (cell proliferation, luminescence) (SNU449 cells; [13]): 30 % UTC
- Antiproliferative effect (cell proliferation, luminescence) (SNU449 cells; [14]): 4 % UTC
- Antiproliferative effect (cell proliferation, luminescence) (SNU449 cells; [15]): 91 % UTC
- Antiproliferative effect (cell proliferation, luminescence) (SNU449 cells; [16]): 97 % UTC
- Antiproliferative effect (cell proliferation, luminescence) (SNU449 cells; [17]): 95 % UTC
- Antiproliferative effect (cell proliferation, luminescence) (SNU449 cells; [18]): 27 % UTC
- Antiproliferative effect (cell proliferation, luminescence) (SNU449 cells; [19]): 3 % UTC
- Antiproliferative effect (cell proliferation, luminescence) (SNU449 cells; [20]): 89 % UTC
- Antiproliferative effect (cell proliferation, luminescence) (SNU449 cells; [21]): 86 % UTC
- Antiproliferative effect (cell proliferation, luminescence) (SNU449 cells; [22]): 84 % UTC
- Antiproliferative effect (cell proliferation, luminescence) (SNU449 cells; [23]): 6 % UTC
- Antiproliferative effect (cell proliferation, luminescence) (SNU449 cells; [24]): 1 % UTC
- Antiproliferative effect (cell proliferation, luminescence) (SNU449 cells; [25]): 68 % UTC
- Yap1 mRNA levels in tumors (Yap1 mRNA [2]): 90 % control

Substance: 958499 (ATTAGAGTATGTGGCA; 3-10-3 cEt gapmer, further chemistry not given here) [compound 958499]
- Kidney weight [3]: 0.57 g
- Liver weight [3]: 2.20 g
- Spleen weight [3]: 0.22 g
- body weight [3]: 39 g
- Kidney weight [4]: 3.1 g
- Liver weight [4]: 14 g
- Spleen weight [4]: 2.8 g
- body weight [4]: 333 g
- YAP1 (% UTC) (Yap1 mRNA [5]; Yap1 mRNA remaining as percent of untreated control, 3-10-3 cEt gapmers, A-431 cells, Table 36): 1 % UTC
- YAP1 (% UTC) (Yap1 mRNA [5]; Yap1 mRNA remaining as percent of untreated control, 3-10-3 cEt gapmers, A-431 cells, Table 37): 2 % UTC

Substance: 715487 (kA*kT*kT*dA*d[5mC]*dT*dT*d[5mC]*dA*dT*dA*dG*d[5mC]*kT*kT*kA) [compound 715487]
- Antiproliferative effect (cell proliferation, luminescence) (SNU449 cells; [6]): 98 % UTC
- Antiproliferative effect (cell proliferation, luminescence) (SNU449 cells; [7]): 102 % UTC
- Antiproliferative effect (cell proliferation, luminescence) (SNU449 cells; [8]): 27 % UTC
- Antiproliferative effect (cell proliferation, luminescence) (SNU449 cells; [9]): 2 % UTC
- Antiproliferative effect (cell proliferation, luminescence) (SNU449 cells; [10]): 93 % UTC
- Antiproliferative effect (cell proliferation, luminescence) (SNU449 cells; [11]): 93 % UTC
- Antiproliferative effect (cell proliferation, luminescence) (SNU449 cells; [12]): 94 % UTC
- Antiproliferative effect (cell proliferation, luminescence) (SNU449 cells; [13]): 12 % UTC
- Antiproliferative effect (cell proliferation, luminescence) (SNU449 cells; [14]): 2 % UTC
- Antiproliferative effect (cell proliferation, luminescence) (SNU449 cells; [15]): 77 % UTC
- Antiproliferative effect (cell proliferation, luminescence) (SNU449 cells; [16]): 84 % UTC
- Antiproliferative effect (cell proliferation, luminescence) (SNU449 cells; [17]): 83 % UTC
- Antiproliferative effect (cell proliferation, luminescence) (SNU449 cells; [18]): 5 % UTC
- Antiproliferative effect (cell proliferation, luminescence) (SNU449 cells; [19]): 1 % UTC
- Antiproliferative effect (cell proliferation, luminescence) (SNU449 cells; [20]): 45 % UTC
- Antiproliferative effect (cell proliferation, luminescence) (SNU449 cells; [21]): 64 % UTC
- Antiproliferative effect (cell proliferation, luminescence) (SNU449 cells; [22]): 64 % UTC
- Antiproliferative effect (cell proliferation, luminescence) (SNU449 cells; [23]): 3 % UTC
- Antiproliferative effect (cell proliferation, luminescence) (SNU449 cells; [24]): 1 % UTC
- Antiproliferative effect (cell proliferation, luminescence) (SNU449 cells; [25]): 23 % UTC

Substance: 958499 (kA*kT*kT*dA*dG*dA*dG*dT*dA*dT*dG*dT*dG*kG*k[5mC]*kA) [Compound 958499]
- YAP1 (% UTC) (Yap1 mRNA [5]; Table 14, A-431 cells, 5,000 cells per well, free uptake, 2,000 nM, approximately 48 hours, RTS4814, normalized to RIBOGREEN, Yap1 mRNA relative to untreated control, * = targets amplicon region of primer probe set): 2 % UTC
- YAP1 (% UTC) (Yap1 mRNA [5]; Table 15, A-431 cells, 5,000 cells per well, free uptake, 2,000 nM, approximately 48 hours, RTS4814, normalized to RIBOGREEN, Yap1 mRNA relative to untreated control, * = targets amplicon region of primer probe set): 1 % UTC
- YAP1 (% UTC) (Yap1 mRNA [5]; Table 16, A-431 cells, 5,000 cells per well, free uptake, 2,000 nM, approximately 48 hours, RTS4814, normalized to RIBOGREEN, Yap1 mRNA relative to untreated control cells): 2 % UTC
- YAP1 (% UTC) (Yap1 mRNA [5]; Table 17, A-431 cells, 5,000 cells per well, free uptake, 2,000 nM, approximately 48 hours, RTS4814, normalized to RIBOGREEN, Yap1 mRNA relative to untreated control cells): 3 % UTC

Substance: 1076453 (GTAATATTGCAATCTG; 3-10-3 cEt gapmer, further chemistry not given here) [compound 1076453]
- Kidney weight [3]: 0.56 g
- Liver weight [3]: 1.91 g
- Spleen weight [3]: 0.20 g
- body weight [3]: 38 g
- Kidney weight [4]: 3.2 g
- Liver weight [4]: 16 g
- Spleen weight [4]: 2.1 g
- body weight [4]: 371 g
